# Legend:
# SOCS-1 = SOCS-1 expression in colon of DSS-induced colitis model mice (real-time PCR); type: in vivo, mouse; details: C57/B6J mice, 2% DSS for 7 days, 10 μM solution orally once daily for 7 days, GAPDH as reference
# Description: The experimental model used C57/B6J mice (7-8 weeks old). Colitis was induced by administration of 2% dextran sulfate sodium (DSS) in drinking water for 7 days. Ten (10) μM solution of Compound B ((−)-7-[(2R,4aR,5R,7aR)-2-(1,1-difluoropentyl)-2-hydroxy-6-oxooctahydrocyclopenta[b]pyran-5-yl]heptanoic acid) was administered orally once daily for 7 days from the day of starting DSS treatment. One day after last administration, animals were sacrificed and colons were excised. After extraction of mRNA from colon tissues, real-time PCR analysis of SOCS-1 was conducted using house-keeping gene GAPDH as a reference.
# IL-12 = IL-12 mRNA expression in intestinal tissue of DSS-induced ulcerative colitis rats (real-time PCR); type: in vivo, rat
# Description: (§1) Male LEW/SsN rats were given free access to 3% dextran sulfate sodium (DSS) in drinking water to induce ulcerative colitis. (−)-7-{(2R,4aR,5R,/aR)-2-[(3S)-1,1-difluoro-3-methylpentyl]-2-hydroxy-6-oxooctahydrocyclopenta[b]pyran-5-yl}heptanoic acid (Compound A) was orally administered to the animals twice a day for 10 days. The same amount of the vehicle was administered to control animals. At the 10 days after start of 3% DSS drinking, animals were sacrificed and intestinal tissues were excised. The mRNA expressions of IL-12, IL-1beta, IL-6, and TNF-alpha in the intestinal tissues were measured by real-time polymerase chain reaction technique.
# (§2) Each value is relative to the reference gene (GAPDH) level. Data are represented as mean (Arbitrary unit) from 3 to 4 animals.
# IL-1beta = IL-1beta mRNA expression in intestinal tissue of DSS-induced ulcerative colitis rats (real-time PCR); type: in vivo, rat
# Description: as §1, §2
# IL-6 = IL-6 mRNA expression in intestinal tissue of DSS-induced ulcerative colitis rats (real-time PCR); type: in vivo, rat
# Description: as §1, §2
# TNF-alpha = TNF-alpha mRNA expression in intestinal tissue of DSS-induced ulcerative colitis rats (real-time PCR); type: in vivo, rat
# Description: as §1, §2
# [1] = Incidence of esophagitis in patients who take NSAIDs (naproxen); type: in vivo, human; details: patients on 500 mg naproxen twice a day
# Description: Patients who take NSAIDs were randomized to one of four treatment groups. All patients received 500 mg of naproxen twice a day. One group received placebo while the other three groups received 18, 36 or 54 mcg of Compound A, respectively, for 12 weeks. The incidence of esophagitis was 10.0%, 6.5% or 6.5% for the groups received 18, 36 or 54 mcg of Compound A, respectively, while it was 20.0% for the group received placebo.
# [2] = DSS-induced ulcerative colitis model rats, versus vehicle control
# [3] = male LEW/SsN rats, 3% DSS drinking water, oral twice a day for 10 days, intestinal tissue, mean from 3 to 4 animals
Structure (SMILES),effect on overexpression of SOCS-1 gene (in words) (SOCS-1),effect on expression of IL-12 increased by DSS (in words) (IL-12; [2]),"expression of IL-12 (mRNA, relative to GAPDH) (IL-12; [3])",effect on expression of IL-1beta increased by DSS (in words) (IL-1beta; [2]),"expression of IL-1beta (mRNA, relative to GAPDH) (IL-1beta; [3])",effect on expression of IL-6 increased by DSS (in words) (IL-6; [2]),"expression of IL-6 (mRNA, relative to GAPDH) (IL-6; [3])",effect on expression of TNF-alpha increased by DSS (in words) (TNF-alpha; [2]),"expression of TNF-alpha (mRNA, relative to GAPDH) (TNF-alpha; [3])",incidence of esophagitis ([1]; 18 mcg for 12 weeks (placebo 20.0%)),incidence of esophagitis ([1]; 36 mcg for 12 weeks (placebo 20.0%)),incidence of esophagitis ([1]; 54 mcg for 12 weeks (placebo 20.0%))
"CCCCC(F)(F)[C@@]1(O)CC[C@H]2[C@@H](CC(=O)[C@@H]2CCCCCCC(=O)O)O1 [Compound B, (−)-7-[(2R,4aR,5R,7aR)-2-(1,1-difluoropentyl)-2-hydroxy-6-oxooctahydrocyclopenta[b]pyran-5-yl]heptanoic acid]",reduced,,,,,,,,,,,
"CC[C@H](C)CC(F)(F)[C@@]1(O)CC[C@H]2[C@@H](CC(=O)[C@@H]2CCCCCCC(=O)O)O1 [Compound A, (−)-7-{(2R,4aR,5R,/aR)-2-[(3S)-1,1-difluoro-3-methylpentyl]-2-hydroxy-6-oxooctahydrocyclopenta[b]pyran-5-yl}heptanoic acid]",,reduced,0.99 Arbitrary unit,reduced,54.83 Arbitrary unit,reduced,49.25 Arbitrary unit,reduced,4.68 Arbitrary unit,10.0%,6.5%,6.5%

# Reference: patent publication US20120270945A1, “METHOD FOR MODULATING CYTOKINE ACTIVITY” (SUCAMPO AG, priority 2011, published 2012)
